Data on 19 molecules can be found in patent US20250289793A1, “MACROCYCLIC INHIBITORS OF ATP CITRATE LYASE” (Esperion Therapeutics, Inc., priority 2022, published 2025).

Series [1] has as its target T1, ACLY (Homo sapiens (Human), UniProt P53396). Put plainly: Human ACLY (hACLY) RF/MS activity assay. It counts as biochemical. The conditions noted are these: 1 nM hACLY; 30 min pre-incubation; 15 μM Coenzyme A, 50 μM ATP, 50 μM citrate; CoA to Acetyl-CoA by RF/MS; read-out: RFMS IC50 GMean. The method, boiled down:
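Reaction buffer was 50 mM Hepes pH 8.0, 10 mM MgCl2, 0.003% BSA, 0.01% Brij35, 50 mM NaCl, 4 mM DTT, with 1 nM hACLY and 1% DMSO; compounds (two-fold series from 10 μM) were pre-incubated 30 min at RT. Reaction with 15 μM CoA, 50 μM ATP, 50 μM citrate ran 30 min, formic-acid quenched; CoA and acetyl-CoA quantified by RF/MS as ratio.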

Series [2] deals with Recombinant human ACLY full length protein (Homo sapiens (Human), UniProt P53396). The experiment in a line: hACLY ADP-Glo activity assay. The settings on record: 0.5 nM ACLY; 15 μM sodium citrate, 1 μM coenzyme A, 80 μM ATP; ADP formed, luminescence; read-out: ADP-Glo IC50 GMean. It counts as biochemical. The procedure: Compounds of the disclosure were evaluated for their efficacy in inhibiting hACLY using an ADP-Glo™ assays that measure ADP formed from the enzymatic activity of hACLY.
Test compounds were 3-fold serially diluted in DMSO over 11-point concentration range and dispensed onto a 384-well plate. Recombinant human ACLY full length protein was purified. Concentrations of ACLY protein, sodium citrate, coenzyme A, and ATP in the reaction were optimized for standardized homogenous enzyme assay using ADP-Glo™ Kinase (Promega Inc.). The assay measured ADP formed from the enzymatic reaction.
The reaction buffer consisted of the assay buffer (50 mM HEPES pH 8.0, 10 mM MgCl2, 4 mM 1,4-Dithiothreitol, 0.01% Brij® 35).
ACLY protein (0.5 nM) was added to the prepared reaction buffer, and the mixture was dispensed into the assay plate and incubated for 30 minutes at room temperature. Next, 15 μM sodium citrate, 1 μM coenzyme A, and 80 μM ATP were added into the assay plate and incubated for 60 minutes at room temperature. The final reaction volume for each well was 5 μL.
5 μL of ADP-Glo™ reagent was added, and the mixture was incubated for 40 minutes at room temperature. 10 μl ADP-Glo™ detection reagent was added, and the mixture was incubated for 30 minutes at room temperature. Luminescence was determined using EnVision microplate reader with ultra-luminescence module (Perkin Elmer Inc). Concentration-response curve-fitting and IC50 determination was performed using Xlfit Software (version 5.5.0) with a four-parameter logistic regression fit model.

Series [3] addresses T1, ACLY. Put plainly: InCell Pulse assay (permeate HEK293 cells, bind to and stabilize ACLY). It is filed as cell-based. The conditions noted are these: HEK293 cells transfected with pICP-ACLY(FL)-ePL; 1 hour at 37° C., 55° C. heat pulse 10 minutes; read-out: InCell Pulse IC50 GMean. The procedure, abridged: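 HEK293 cells transiently expressing full-length ACLY-ePL were exposed in OptiMEM to 11-point, 3-fold compound dilutions for 1 h at 37 °C, heat-pulsed 10 min at 55 °C, then lysed for enzyme-fragment complementation luminescence. Four-parameter fit, normalised to 0.5% DMSO and 1 μM NDI-094311.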

In series [4] the test system is HepG2 cells. The experiment in a line: Fatty acid synthesis (FAS) assay in HepG2 cells. It counts as cell-based. The conditions noted are these: Homo sapiens, 1.5 h, 14C-citrate 50 μM, 90 min, read-out: FAS IC50 GMean. On the procedure:
HepG2 cells were seeded into white clear-bottom 96-well plates (50,000/well) coated with collagen and incubated at 37° C. for 16-24 hours. Thereafter the plates were washed once with 100 μL PBS (+CaCl2+MgCl2) and 50 μL assay medium ([…] containing 11 mM glucose, 10 mM HEPES and 1 nM Insulin) per well was added. Test substances in assay medium were added (10 μL, 0.5% DMSO) and incubated for 20 min at 37° C. After that 10 μL assay medium containing ^14C-citrate (final concentration 50 μM) and PrestoBlue reagent (lx final concentration; ThermoFisher) were added and incubated for 90 min (37° C., 5% CO2). Cell viability was measured (Multiskan FC, microplate reader, absorbance 570 nm). Medium was removed by inverting the plate and cells were washed once with 100 μL ice-cold PBS. Cells were lysed with 50 μL lysis buffer (0.1 N NaOH, 0.1% Triton X-100) and plate was sealed with Tape Pads and vortexed. For the saponification reaction plates were incubated for 16-24 hours at 80° C. Seals were removed and 200 μL 0.1 N HCl was added for neutralisation of the pH. 150 μL from each well was transferred into the corresponding wells of a 96-well Flash plate (Perkin Elmer) and sealed with TopSeal A (Perkin Elmer). Plates were incubated for 4 h at 70° C., and for 1 h at room temperature in the dark. Signal of ^14C radioactivity was measured (TopCount). As a positive control 5 mM unlabelled citrate or C75 (Sigma, C5490) was applied.

Read-outs that look alike come from different tables or passages of the source.

Recombinant human ACLY full length protein, sequence (P53396 whole entry): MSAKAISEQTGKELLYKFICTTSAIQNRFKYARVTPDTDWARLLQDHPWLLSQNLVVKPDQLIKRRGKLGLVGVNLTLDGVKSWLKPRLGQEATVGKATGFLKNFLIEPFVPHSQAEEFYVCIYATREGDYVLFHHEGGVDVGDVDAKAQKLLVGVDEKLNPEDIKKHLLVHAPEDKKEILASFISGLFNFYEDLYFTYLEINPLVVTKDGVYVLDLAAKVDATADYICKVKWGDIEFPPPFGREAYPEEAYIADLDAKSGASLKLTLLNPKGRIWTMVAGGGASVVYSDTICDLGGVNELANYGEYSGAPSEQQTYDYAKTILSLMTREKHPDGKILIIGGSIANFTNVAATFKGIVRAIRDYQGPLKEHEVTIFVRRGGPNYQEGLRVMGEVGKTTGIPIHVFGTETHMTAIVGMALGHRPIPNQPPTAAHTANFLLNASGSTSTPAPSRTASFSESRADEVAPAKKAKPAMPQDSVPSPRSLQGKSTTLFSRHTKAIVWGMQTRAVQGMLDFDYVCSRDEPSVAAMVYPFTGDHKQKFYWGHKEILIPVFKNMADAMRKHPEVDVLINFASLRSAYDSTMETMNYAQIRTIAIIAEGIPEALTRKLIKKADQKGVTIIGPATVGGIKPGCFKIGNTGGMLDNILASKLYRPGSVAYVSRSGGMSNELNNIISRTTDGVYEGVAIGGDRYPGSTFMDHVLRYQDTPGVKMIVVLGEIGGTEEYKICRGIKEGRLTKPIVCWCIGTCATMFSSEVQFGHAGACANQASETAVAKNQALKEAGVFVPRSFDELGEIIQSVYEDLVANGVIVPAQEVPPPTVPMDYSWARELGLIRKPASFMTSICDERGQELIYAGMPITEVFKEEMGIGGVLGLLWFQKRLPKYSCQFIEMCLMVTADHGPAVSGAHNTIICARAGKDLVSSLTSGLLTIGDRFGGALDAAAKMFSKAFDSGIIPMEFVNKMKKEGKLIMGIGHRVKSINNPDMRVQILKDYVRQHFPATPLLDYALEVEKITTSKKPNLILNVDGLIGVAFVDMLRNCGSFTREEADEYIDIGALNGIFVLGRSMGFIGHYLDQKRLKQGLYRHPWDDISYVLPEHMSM
T1 sequence (P53396 whole entry): as above

As for `O=C1NCCCOc2cccc(c2)-c2cc(c(F)cc2F)NS(=O)(=O)c2cc1cc(Cl)c2O` [Compound 5, 11-chloro-3,5-difluoro-10-hydroxy-19-oxa-8lambda6-thia-7,15-diazatetracyclo[18.3.1.1^2,6.1^9,13]hexacosa-1(23),2(26),3,5,9(25),10,12,20(24),21-nonaene-8,8,14-trione], the IC50 in series [1] is 0.1 to 10 µM; in series [2] it was 0.01 to 1 µM; in series [3] it was no less than 50 µM.
As to `COc1c(Cl)cc2cc1S(=O)(=O)Nc1cc(c(F)cc1F)-c1cccc3c1OC(COC2=O)C3` (stereo not shown), the ring closure, isolated yield (from COc1c(Cl)cc(C(=O)O)cc1S(=O)(=O)Nc1cc(-c2cccc3c2OC(CO)C3)c(F)cc1F, ester bond, 15-membered ring, DCC/DMAP, DCM, 29.5 mM, 25.0 °C, 2.0 h) worked out at 70%.
For `O=C1NCCOc2ccccc2-c2cc(c(F)cc2F)NS(=O)(=O)c2cc1cc(Cl)c2O` [Compound 2, 15-chloro-21,23-difluoro-16-hydroxy-8-oxa-18lambda6-thia-11,19-diazatetracyclo[18.3.1.1^13,17.0^2,7]pentacosa-1(24),2,4,6,13,15,17(25),20,22-nonaene-12,18,18-trione], the IC50 in series [1] is 0.02 to 0.1 µM; in series [2], 0.001 to 0.01 µM; in series [3] it was 1 to 50 µM; in series [4] it was no less than 50 µM.
Take `C[C@@H]1COc2ccccc2-c2cc(c(F)cc2F)NS(=O)(=O)c2cc(cc(Cl)c2O)C(=O)N1` [Compound 19, (10R)-15-chloro-21,23-difluoro-16-hydroxy-10-methyl-8-oxa-18lambda6-thia-11,19-diazatetracyclo[18.3.1.1^13,17.0^2,7]pentacosa-1(24),2,4,6,13,15,17(25),20,22-nonaene-12,18,18-trione]: the results for the half-maximal inhibitory concentration (IC50) in series [1], in series [2] and in series [3] were 0.1 to 10 µM, 0.01 to 1 µM and no less than 50 µM, respectively.
Taken in the same sequence, the figures for `O=C1OCCCOc2ccccc2-c2cc(c(F)cc2F)NS(=O)(=O)c2cc1cc(Cl)c2O` [Compound 20, 16-chloro-22,24-difluoro-17-hydroxy-8,12-dioxa-19lambda6-thia-20-azatetracyclo[19.3.1.1^14,18.0^2,7]hexacosa-1(25),2,4,6,14,16,18(26),21,23-nonaene-13,19,19-trione] were less than 0.02 µM, less than 0.001 µM and 0.3 to 1 µM.
For the setting “from COc1c(Cl)cc(C(=O)O)cc1S(=O)(=O)Nc1cc(-c2ccccc2C(C)CCO)c(F)cc1F, ester bond, 15-membered ring, DCC/DMAP, DCM, 19.8 mM, 25.0 °C, 2.0 h”, `COc1c(Cl)cc2cc1S(=O)(=O)Nc1cc(c(F)cc1F)-c1ccccc1C(C)CCOC2=O` (stereo not shown) had a ring closure, isolated yield of 72%.
On to `COc1c(Cl)cc2cc1S(=O)(=O)Nc1cc(ccc1F)-c1ccccc1CCOC2`, for which the ring closure, isolated yield (from COc1c(Cl)cc(CBr)cc1S(=O)(=O)Nc1cc(-c2ccccc2CCO)ccc1F, ether bond, 14-membered ring, NaH, THF, 12.7 mM, 50.0 °C, 2.5 h) was 78%.
With `COc1c(Cl)cc2cc1S(=O)(=O)Nc1cc(c(F)cc1F)-c1ccccc1OCCNC2=O` [Compound 1, 15-chloro-21,23-difluoro-16-methoxy-8-oxa-18lambda6-thia-11,19-diazatetracyclo[18.3.1.1^13,17.0^2,7]pentacosa-1(24),2,4,6,13,15,17(25),20,22-nonaene-12,18,18-trione], the ring closure, isolated yield (amide bond, 15-membered ring, T3P/DIPEA, EtOAc/DMF, 4.9 mM) turned out to be 72%. The IC50 in series [2] was no less than 1 µM.
In the case of `COc1c(Cl)cc2cc1S(=O)(=O)Nc1cc(ccc1F)-c1ccccc1CCCOC2`, the ring closure, isolated yield (from COc1c(Cl)cc(CBr)cc1S(=O)(=O)Nc1cc(-c2ccccc2CCCO)ccc1F, ether bond, 15-membered ring, NaH, THF, 13.0 mM, 50.0 °C, 2.0 h) came out at 46%.
In turn, `COc1c(Cl)cc2cc1S(=O)(=O)Nc1cc(c(F)cc1F)-c1ccccc1N1CC(COC2=O)C1` had a ring closure, isolated yield (from 3-chloro-5-[[2,4-difluoro-5-[2-[3-(hydroxymethyl)229azetidine-1-yl]phenyl]phenyl]sulfamoyl]-4-methoxybenzoic acid, ester bond, 16-membered ring, DCC/DMAP, DCM, 25.0 mM) of 60%.
`COc1ccc2cc1C(=O)N1CCc3cc(F)c(cc31)-c1ccccc1OCCNC2=O`: the ring closure, isolated yield (from 3-[6-[2-(2-aminoethoxy)phenyl]-5-fluoro-indoline-1-carbonyl]-4-methoxybenzoic acid·HCl, amide bond, 15-membered ring, T3P/DIPEA, DMF, 11.6 mM) turned out to be 24%.
Take `O=C1NCCOc2cccc(c2)-c2cc(c(F)cc2F)NS(=O)(=O)c2cc1cc(Cl)c2O` [Compound 3, 11-chloro-3,5-difluoro-10-hydroxy-18-oxa-8lambda6-thia-7,15-diazatetracyclo[17.3.1.1^2,6.1^9,13]pentacosa-1(22),2(25),3,5,9(24),10,12,19(23),20-nonaene-8,8,14-trione]: the IC50 in series [1] was 0.1 to 10 µM; in series [2], 0.01 to 1 µM; in series [3], no less than 50 µM.
Regarding `O=C1OCCOc2ccccc2-c2cc(c(F)cc2F)NS(=O)(=O)c2cc1cc(Cl)c2O` [Compound 7, 15-chloro-21,23-difluoro-16-hydroxy-8,11-dioxa-18lambda6-thia-19-azatetracyclo[18.3.1.1^13,170^2,7]pentacosa-1(24),2,4,6,13,15,17(25),20,22-nonaene-12,18,18-trione], the half-inhibitory concentration (IC50) in series [4] was less than 2 µM.
As to `COc1c(Cl)cc2cc1S(=O)(=O)Nc1cc(c(F)cc1F)Oc1cccc(c1)COC2=O`, the ring closure, isolated yield (from COc1c(Cl)cc(C(=O)O)cc1S(=O)(=O)Nc1cc(Oc2cccc(CO)c2)c(F)cc1F, ester bond, 15-membered ring, DCC/DMAP, DCM, 19.8 mM, 3.0 h) amounted to 72%.
As to `COc1c(Cl)cc2cc1S(=O)(=O)Nc1cc(c(F)cc1F)-c1ccccc1COC2=O`, the ring closure, isolated yield (from COc1c(Cl)cc(C(=O)O)cc1S(=O)(=O)Nc1cc(-c2ccccc2CO)c(F)cc1F, ester bond, 13-membered ring, DCC/DMAP, DCM, 21.8 mM, 26.5 h) was determined as 43%.
For the molecule `COc1c(Cl)cc2cc1S(=O)(=O)Nc1cc(ccc1C(F)(F)F)-c1ccccc1OCCOC2=O`, the ring closure, isolated yield (from COc1c(Cl)cc(C(=O)O)cc1S(=O)(=O)Nc1cc(-c2ccccc2OCCO)ccc1C(F)(F)F, ester bond, 15-membered ring, DCC/DMAP, DCM, 16.8 mM, 25.0 °C, 1.0 h) came out at 42%.
Turning to `COc1c(Cl)cc2cc1S(=O)(=O)Nc1cc(c(F)cc1F)-c1ccccc1COC(=O)C2`, the ring closure, isolated yield (from COc1c(Cl)cc(CC(=O)O)cc1S(=O)(=O)Nc1cc(-c2ccccc2CO)c(F)cc1F, ester bond, 14-membered ring, DCC/DMAP, DCM, 12.7 mM, 3.0 h) is 19%.
Consider `O=C1OCCOc2ccccc2-c2cc(c(F)cc2F)NS(=O)(=O)c2cc1cc(Cl)c2C(F)F`, for which the ring closure, isolated yield (from O=C(O)c1cc(Cl)c(C(F)F)c(S(=O)(=O)Nc2cc(-c3ccccc3OCCO)c(F)cc2F)c1, ester bond, 15-membered ring, DCC/DMAP, DCM, 33.0 mM, 25.0 °C, 1.5 h) is 53%.
Under “from 3-chloro-5-[[2-fluoro-5-[(2R)-2-(2-hydroxyethyl)221pyrrolidine-1-yl]phenyl]sulfamoyl]-4-methoxybenzoic acid, ester bond, 14-membered ring, DCC/DMAP, DCM, 26.0 mM”, `COc1c(Cl)cc2cc1S(=O)(=O)Nc1cc(ccc1F)N1CCC[C@@H]1CCOC2=O` registered a ring closure, isolated yield of 77%.

In general, IC50 refers to the point on the concentration scale where inhibition reaches its midpoint.
